In ChEMBL document CHEMBL1122184, “Synthesis and antileukemic activity of fluorinated analogues of 2,3-dihydro-5-phenyl-6,7-bis(hydroxymethyl)-1H-pyrrolizine biscarbamate” (J Med Chem, 1982):

Experiments:
Mus musculus [1] = experiment: In vivo activity of compound was measured against P388 lymphocytic leukemia at the dose of 3.13 mg/kg.; type: functional
Mus musculus [2] = experiment: In vivo activity of compound was measured against P388 lymphocytic leukemia at the dose of 100 mg/kg; toxic; type: functional, organism-based; set-up: dose 100 mg/kg
Mus musculus [3] = experiment: In vivo activity of compound was measured against P388 lymphocytic leukemia at the dose of 25 mg/kg.; type: functional
Mus musculus [4] = experiment: In vivo activity of compound was measured against P388 lymphocytic leukemia at the dose of 1.56 mg/kg.; type: functional
Mus musculus [5] = experiment: In vivo activity of compound was measured against P388 lymphocytic leukemia at the dose of 6.25 mg/kg.; type: functional
Mus musculus [6] = experiment: In vivo activity of compound was measured against P388 lymphocytic leukemia at the dose of 0.76 mg/kg.; type: functional
Mus musculus [7] = experiment: In vivo activity of compound was measured against P388 lymphocytic leukemia at the dose of 50 mg/kg; toxic; type: functional, organism-based; set-up: dose 50 mg/kg
Mus musculus [8] = experiment: In vivo activity of compound was measured against P388 lymphocytic leukemia at the dose of 200 mg/kg; toxic; type: functional, organism-based; set-up: dose 200 mg/kg
Mus musculus [9] = experiment: In vivo activity of compound was measured against P388 lymphocytic leukemia at the dose of 12.5 mg/kg.; type: functional
Mus musculus [10] = experiment: In vivo activity of compound was measured against P388 lymphocytic leukemia at the dose of 50 mg/kg; type: functional
Mus musculus [11] = experiment: In vivo activity of compound was measured against P388 lymphocytic leukemia at the dose of 100 mg/kg; type: functional
Mus musculus [12] = experiment: In vivo activity of compound was measured against P388 lymphocytic leukemia at the dose of 25 mg/kg; toxic; type: functional, organism-based; set-up: dose 25 mg/kg
Mus musculus [13] = experiment: In vivo activity of compound was measured against P388 lymphocytic leukemia at the dose of 0.78 mg/kg.; type: functional
Mus musculus [14] = experiment: In vivo activity of compound was measured against P388 lymphocytic leukemia at the dose of 50 mg/kg.; type: functional
Mus musculus [15] = experiment: In vivo activity of compound was measured against P388 lymphocytic leukemia at the dose of 100 mg/kg.; type: functional
Mus musculus [16] = experiment: In vivo activity of compound was measured against P388 lymphocytic leukemia at the dose of 0.78 mg/kg; toxic; type: ADME, organism-based; set-up: dose 0.78 mg/kg
Mus musculus [17] = experiment: In vivo activity of compound was measured against P388 lymphocytic leukemia at the dose of 12.5 mg/kg; type: functional
Mus musculus [18] = experiment: In vivo activity of compound was measured against P388 lymphocytic leukemia at the dose of 25 mg/kg; type: functional
Mus musculus [19] = experiment: In vivo activity of compound was measured against P388 lymphocytic leukemia at the dose of 6.25 mg/kg; type: functional

| SMILES | T/C (Mus musculus [1]) | T/C (Mus musculus [2]) | T/C (Mus musculus [3]) | T/C (Mus musculus [4]) | T/C (Mus musculus [5]) | T/C (Mus musculus [6]) | T/C (Mus musculus [7]) | T/C (Mus musculus [8]) | T/C (Mus musculus [9]) | T/C (Mus musculus [10]) | T/C (Mus musculus [11]) | T/C (Mus musculus [12]) | T/C (Mus musculus [13]) | T/C (Mus musculus [14]) | T/C (Mus musculus [15]) | T/C (Mus musculus [16]) | T/C (Mus musculus [17]) | T/C (Mus musculus [18]) | T/C (Mus musculus [19]) |
| --- | --- | --- | --- | --- | --- | --- | --- | --- | --- | --- | --- | --- | --- | --- | --- | --- | --- | --- | --- |
| CC(C)NC(=O)OCc1c(COC(=O)NC(C)C)c(-c2ccc(F)cc2F)n2c1CCC2 | 168% | Toxic | 99% | 142% | 162% | 135% | Toxic | Toxic | 180% | – | – | – | – | – | – | – | – | – | – |
| CC(C)NC(=O)OCc1c(COC(=O)NC(C)C)c(-c2ccc(Cl)c(Cl)c2)n2c1CCC2 | 141% | – | 226% | 122% | 149% | – | – | Toxic | 177% | 160% | 113% | – | – | – | – | – | – | – | – |
| CNC(=O)OCc1c(COC(=O)NC)c(-c2cccc(F)c2F)n2c1CCC2 | 134% | Toxic | 156% | – | 131% | – | Toxic | Toxic | 149% | – | – | – | – | – | – | – | – | – | – |
| CNC(=O)OCc1c(COC(=O)NC)c(-c2ccc(F)cc2)n2c1CCC2 | 141% | Toxic | – | 122% | 137% | – | Toxic | Toxic | 128% | – | – | Toxic | 146% | – | – | – | – | – | – |
| CNC(=O)OCc1c(COC(=O)NC)c(-c2c(F)cccc2F)n2c1CCC2 | 148% | Toxic | 88% | – | 166% | – | Toxic | Toxic | 148% | – | – | – | – | – | – | – | – | – | – |
| CC(C)NC(=O)OCc1c(COC(=O)NC(C)C)c(-c2ccc(F)c(F)c2)n2c1CCC2 | 151% | – | 123% | 126% | 160% | – | – | Toxic | 178% | – | – | – | – | 92% | 70% | Toxic | – | – | – |
| CNC(=O)OCc1c(COC(=O)NC)c(-c2cc(F)ccc2F)n2c1CCC2 | – | Toxic | – | – | – | – | – | Toxic | – | 73% | – | – | – | – | – | – | 151% | 156% | 147% |
